Assay results: patent US5922891A, “2-substituted 1,8-dihydroxy-9(10H)-anthracenone pharmaceuticals” (priority 1997, dated 1999)
pIC50: −log10 of the molar value.

Tests used:
5-LO in bovine PMNL = target: T1, 5-LO in bovine PMNL (Bos taurus, UniProt F1MQ78); experiment: Inhibition of 5-lipoxygenase (5-HETE and LTB4 biosynthesis) in Ca-ionophore-stimulated bovine PMNL; format: cell-based; settings: N = 3 or more
T1 construct: The purified PMNLs were suspended at a concentration of; endogenous in cells; host or cells: polymorphonuclear leukocytes isolated from bovine blood
T1 sequence (F1MQ78 1-674): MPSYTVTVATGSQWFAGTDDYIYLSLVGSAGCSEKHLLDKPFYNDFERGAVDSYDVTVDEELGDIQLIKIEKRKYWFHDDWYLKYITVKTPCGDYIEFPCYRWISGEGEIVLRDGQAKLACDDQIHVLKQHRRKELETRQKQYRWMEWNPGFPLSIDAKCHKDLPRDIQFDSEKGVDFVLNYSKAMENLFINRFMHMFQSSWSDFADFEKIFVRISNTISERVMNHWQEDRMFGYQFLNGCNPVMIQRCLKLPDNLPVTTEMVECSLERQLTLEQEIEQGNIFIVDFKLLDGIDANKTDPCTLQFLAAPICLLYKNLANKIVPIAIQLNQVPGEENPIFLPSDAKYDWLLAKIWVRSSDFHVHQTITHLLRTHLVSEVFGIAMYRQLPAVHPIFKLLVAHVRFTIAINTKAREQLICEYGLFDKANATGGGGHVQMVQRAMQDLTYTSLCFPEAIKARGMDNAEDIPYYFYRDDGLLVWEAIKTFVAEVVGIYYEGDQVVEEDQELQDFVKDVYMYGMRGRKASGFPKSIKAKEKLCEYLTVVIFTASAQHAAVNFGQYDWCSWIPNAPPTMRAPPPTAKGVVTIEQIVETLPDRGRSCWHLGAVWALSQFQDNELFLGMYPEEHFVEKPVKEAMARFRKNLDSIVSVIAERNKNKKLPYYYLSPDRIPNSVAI

HaCaT cells = experiment: Antiproliferative activity against HaCaT cells (human keratinocyte cell line); format: cell-based; settings: 48 h, read-out: AA IC50 (antiproliferative activity)

SMILES | pIC50 (5-LO in bovine PMNL) | pIC50 (HaCaT cells)
COC(=O)CCCCc1ccc2c(c1O)C(=O)c1c(O)cccc1C2 [IVB, Methyl 5-(9,10-Dihydro-1,8-dihydroxy-9-oxo-2-anthracene)pentanoate] | < 4.52 | 5.74
COC(=O)CCCCCc1ccc2c(c1O)C(=O)c1c(O)cccc1C2 [VB, Methyl 6-(9,10-Dihydro-1,8-dihydroxy-9-oxo-2-anthracene) hexaonate] | < 4.52 | 
CC(C(=O)N(C)O)c1ccc2c(c1O)C(=O)c1c(O)cccc1C2 (stereo not drawn) [VIID, N-Hydroxy-N-methyl-2-(9,10-dihydro-1,8-dihydroxy-9-oxo-2-anthracene)propionamide] | 5.40 | 5.82
COC(=O)C(c1ccc2c(c1O)C(=O)c1c(O)cccc1C2)C(C)C (stereo not drawn) [VIIIB, Methyl 2-(9,10-Dihydro-1,8-dihydroxy-9-oxo-2-anthracene)-3-methylbutanoate] | < 4.52 | 
